Laboratory results taken from US5418236A, “Anxiolytic aroyl piperidinyl and piperazinylacyl pyrroles” (Ortho Pharmaceutical Corporation, priority 1993, dated 1995).
Read-outs that look alike come from different tables or passages of the source. Blank lines part the entries; values can stand above or below the molecule they belong to.

Legend:
5-HT1A receptor = target: T1, 5-HT1A receptor (Rattus norvegicus, UniProt P19327); test: 5-HT1A assay (competitive binding, 3H-8-hydroxy-DPAT, cerebral cortex P2 fraction); parameters: species or system male, Wistar rats
T1 construct: P2 fraction (synaptosomal membranes) from the cerebral cortex of male, Wistar rats; from tissue; host or cells: cerebral cortex of male Wistar rats, P2 fraction (synaptosomal membranes)
T1 sequence (P19327 1-422): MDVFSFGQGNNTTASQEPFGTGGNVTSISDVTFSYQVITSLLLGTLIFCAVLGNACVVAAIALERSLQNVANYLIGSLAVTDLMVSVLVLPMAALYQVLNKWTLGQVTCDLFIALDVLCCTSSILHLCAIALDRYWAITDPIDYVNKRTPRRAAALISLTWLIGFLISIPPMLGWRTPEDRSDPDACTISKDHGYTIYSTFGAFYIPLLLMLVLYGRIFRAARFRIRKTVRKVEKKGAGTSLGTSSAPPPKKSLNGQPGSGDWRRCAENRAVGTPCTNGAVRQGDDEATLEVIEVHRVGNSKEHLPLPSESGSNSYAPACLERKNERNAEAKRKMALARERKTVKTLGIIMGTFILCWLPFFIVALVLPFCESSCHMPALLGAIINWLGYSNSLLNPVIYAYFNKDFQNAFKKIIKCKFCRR
Protocol: The 5-HT1A assay used a P2 fraction (synaptosomal membranes) from the cerebral cortex of male, Wistar rats. The ligand ^3 H-8-hydroxy-DPAT was used in competitive binding experiments at a concentration of 3 nM, and 1 mM serotonin as a blank determinant. Incubation was in 3 mM potassium phosphate buffer for 20 min at 25° C.
The data from each assay were analyzed by calculating the percent inhibition of the binding of the tritiated ligands by given concentrations of the test compound. Ki values, where given, were obtained from the logit analysis of concentration-inhibition curves.

Male rats = test: anxiolytic activity: release of behavior suppressed by punishment (Vogel conflict test); format: in vivo
Protocol: The anxiolytic activity of selected compounds of the invention was assessed by determining their ability to release (disinhibit) behavior that had been suppressed by punishment (Vogel, J. R. et al. Psychopharmacology 1971, 21, 1). Male rats were deprived of water for 48 hours and were deprived of food for 24 hours prior to testing. After the first 24 hours of water deprivation, they were placed in the conflict chamber for a training period; wherein, they were allowed 200 unpunished licks from a bottle containing tap water. The experiment was run the next day. At the expected time of peak activity, the animals were placed in the chamber and allowed access to tap water. […] Their first lick initiates a 3-min test session. Subsequently,every 20th lick was punished by a 0.2-s shock delivered via the stainless-steel drinking-tube. Vehicle-treated control animals generally were willing to accept a median number of 3 to 8 shocks per test session. […] The Wilcoxon rank-sum test (Mann-WhitneyU-test) was used to test for an increase (p<0.05, 1-tailed) in the median number of shocks in drug-treated groups, compared to a concurrently run vehicle-treated group. The biological assay is considered to be valid if the effects of a known anxiolytic (positive control) are detected, within the same experiment. […]

5-HT2 receptor = 5-HT2 receptor (Rattus norvegicus, UniProt P14842); test: binding to the 5-HT2 receptor; settings: 1 μM
D2 receptor [1] = target: D2 receptor (Rattus norvegicus, UniProt P61169); test: binding to the D2 receptor; settings: 1 μM
α1 receptor = test: binding to the α1 receptor; settings: for inhibition in binding to the α1 receptor: 1 μM
D2 receptor [2] = target: D2 receptor (Homo sapiens, UniProt P14416); settings: background statement; cited from earlier work
[3] = 3H-8-hydroxy-DPAT 3 nM, 20 min, 25° C., rat cerebral cortex P2 fraction, read-out: Ki (5HT1A)
[4] = 3H-8-hydroxy-DPAT 3 nM, 20 min, 25° C., rat cerebral cortex P2 fraction

D2 receptor (Rattus norvegicus, UniProt P61169), sequence (P61169 whole entry): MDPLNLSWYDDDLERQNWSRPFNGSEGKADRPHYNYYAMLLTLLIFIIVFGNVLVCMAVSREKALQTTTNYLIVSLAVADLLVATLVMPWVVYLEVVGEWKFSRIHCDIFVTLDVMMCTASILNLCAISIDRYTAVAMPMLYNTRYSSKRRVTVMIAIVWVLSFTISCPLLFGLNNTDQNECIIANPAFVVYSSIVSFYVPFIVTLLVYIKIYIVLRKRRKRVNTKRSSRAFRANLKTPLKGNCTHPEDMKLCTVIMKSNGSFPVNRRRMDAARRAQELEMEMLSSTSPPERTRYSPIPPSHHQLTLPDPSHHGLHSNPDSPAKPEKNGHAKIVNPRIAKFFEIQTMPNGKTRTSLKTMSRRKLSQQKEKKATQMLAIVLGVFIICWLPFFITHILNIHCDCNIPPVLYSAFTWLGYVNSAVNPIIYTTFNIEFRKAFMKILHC
5-HT2 receptor, sequence (P14842 whole entry): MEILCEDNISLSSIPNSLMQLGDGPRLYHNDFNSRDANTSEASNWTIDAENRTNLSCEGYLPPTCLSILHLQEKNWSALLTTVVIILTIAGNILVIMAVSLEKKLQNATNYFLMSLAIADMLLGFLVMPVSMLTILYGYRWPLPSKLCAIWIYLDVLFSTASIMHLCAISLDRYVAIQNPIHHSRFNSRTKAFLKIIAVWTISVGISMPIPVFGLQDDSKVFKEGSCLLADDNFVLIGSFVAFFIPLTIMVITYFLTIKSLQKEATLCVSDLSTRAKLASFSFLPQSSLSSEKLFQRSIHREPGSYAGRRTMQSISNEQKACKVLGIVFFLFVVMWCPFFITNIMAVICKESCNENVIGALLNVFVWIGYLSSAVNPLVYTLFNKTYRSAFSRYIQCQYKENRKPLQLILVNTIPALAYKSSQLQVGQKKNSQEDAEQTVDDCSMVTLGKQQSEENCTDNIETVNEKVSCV
D2 receptor (Homo sapiens, UniProt P14416), sequence (P14416 whole entry): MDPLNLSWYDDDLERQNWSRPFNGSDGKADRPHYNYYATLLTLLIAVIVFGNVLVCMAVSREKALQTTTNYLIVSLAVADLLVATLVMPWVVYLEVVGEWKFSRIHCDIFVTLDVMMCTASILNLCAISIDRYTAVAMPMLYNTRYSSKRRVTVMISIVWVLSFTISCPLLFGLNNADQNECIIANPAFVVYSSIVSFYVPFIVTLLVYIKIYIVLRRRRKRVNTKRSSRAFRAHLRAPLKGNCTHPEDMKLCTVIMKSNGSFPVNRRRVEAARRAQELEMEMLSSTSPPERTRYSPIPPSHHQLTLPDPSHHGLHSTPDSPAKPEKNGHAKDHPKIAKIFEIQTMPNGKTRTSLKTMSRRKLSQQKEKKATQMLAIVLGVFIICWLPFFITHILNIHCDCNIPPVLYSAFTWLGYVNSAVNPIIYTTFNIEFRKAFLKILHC

Structure (SMILES): Cn1cc(C(=O)CN2CCN(c3ncccn3)CC2)cc1C(=O)c1ccc([N+](=O)[O-])cc1 [Example 5, 1-[1-Methyl-5-(4-nitrobenzoyl)-1H-pyrrol-3-yl]-2-[4-(2-pyrimidinyl)-1-piperazinyl]ethanone]
Ki (5-HT1A receptor; [3]): 7.7 nM
change in responding (Male rats; 5 mg/kg IP): 240%
inhibition in binding to the 5-HT2 receptor (5-HT2 receptor): no inhibition
inhibition in binding to the D2 receptor (D2 receptor [1]): no inhibition
inhibition in binding to the α1 receptor (α1 receptor): no inhibition

inhibition at 1 µM (5-HT1A receptor; [4]): 24%
Structure (SMILES): Cc1c(C(=O)CN2CCN(c3ncccn3)CC2)c(C)n(C)c1C(=O)c1ccc(Cl)cc1 [Example 6-1]

inhibition at 1 µM (5-HT1A receptor; [4]): 94%
Structure (SMILES): Cn1cc(C(=O)CN2CCN(c3ccccn3)CC2)cc1C(=O)c1ccc(Cl)cc1 [Example 6-2]

inhibition at 1 µM (5-HT1A receptor; [4]): 83%
Structure (SMILES): CC(C)Oc1ccccc1N1CCN(CC(=O)c2cc(C(=O)c3ccccc3Cl)n(C)c2)CC1 [Example 6-3]

inhibition at 1 µM (5-HT1A receptor; [4]): 91%
Structure (SMILES): Cn1cc(C(=O)CN2CCN(c3ncccn3)CC2)cc1C(=O)c1ccc(F)cc1 [Example 6-4]

inhibition at 1 µM (5-HT1A receptor; [4]): 67%
Structure (SMILES): Cn1cc(C(=O)CN2CCN(c3cccc4ccccc34)CC2)cc1C(=O)c1ccc(Cl)cc1 [Example 6-5]

Ki (5-HT1A receptor; [3]): 6 nM
Structure (SMILES): Cc1c(C(=O)CCCCN2CCN(c3ncccn3)CC2)c(C)n(C)c1C(=O)c1ccc(Cl)cc1 [Example 6-6]

Structure (SMILES): Cl.Cn1cc(C(=O)CN2CCC(O)(c3ccc(Cl)cc3)CC2)cc1C(=O)c1ccccc1Cl [Example 7, 1-[5-(2-Chlorobenzoyl)-1-methyl-1H-pyrrol-3-yl]-2-[4-(4-chlorophenyl)-4-hydroxy-1-piperidinyl]ethanone Hydrochloride]
Ki (5-HT1A receptor): 15 nM
change in responding (Male rats; 10 mg/kg IP): 180%
inhibition in binding to the 5-HT2 receptor (5-HT2 receptor): no inhibition
inhibition in binding to the D2 receptor (D2 receptor [1]): no inhibition
inhibition in binding to the α1 receptor (α1 receptor): no inhibition

inhibition at 1 µM (5-HT1A receptor; [4]): 69%
Structure (SMILES): Cn1cc(C(=O)CN2CCC(c3ccccc3)CC2)cc1C(=O)c1ccc(Cl)cc1 [Example 8, 1-[5-(4-chlorobenzoyl)-1-methyl-1H-pyrrol-3-yl]-2-(4-phenylpiperidinyl)-ethanone]

Structure (SMILES): COc1cccc(OC)c1OCCNCC1COc2ccccc2O1 (stereo not drawn) [WB4101, reference compound]
Ki (5-HT1A receptor; [3]): 0.32 nM

Structure (SMILES): O=C1CC2(CCCC2)CC(=O)N1CCCCN1CCN(c2ncccn2)CC1 [buspirone]
binding to the D2 receptor (D2 receptor [2]): binds to the D2 receptor
Ki (α1 receptor): 138 nM

Structure (SMILES): Cc1ccc(N(CC2=NCCN2)c2cccc(O)c2)cc1 [phentolamine, reference compound]
Ki (5-HT1A receptor): 59 nM
